Measurements as given in ChEMBL document CHEMBL1781885, “Cytotoxic norsesquiterpene peroxides from the endophytic fungus Talaromyces flavus isolated from the mangrove plant Sonneratia apetala” (J Nat Prod, 2011).
Converted amounts (≈) assume the structure as drawn. The source made the active and inactive calls. The calls are words filed in the database; no cut-off is given here.

Legend:
HepG2 = assay: Cytotoxicity against human HepG2 after 6 days by MTT method; format: functional, cell-based; conditions: HepG2, 144 h
MDA-MB-435 = assay: Cytotoxicity against human MDA-MB-435 after 6 days by MTT method; format: functional, cell-based; conditions: MDA-MB-435, 144 h
MCF7 = assay: Cytotoxicity against human MCF7 cells after 6 days by MTT method; format: functional, cell-based; conditions: MCF7, 144 h
PC-3 = assay: Cytotoxicity against human PC3 cells after 6 days by MTT method; format: functional, cell-based; conditions: PC-3, 144 h
Pseudomonas aeruginosa = assay: Antimicrobial activity against Pseudomonas aeruginosa ATCC 25668 at 50 ug/ml; format: functional, organism-based
Aspergillus niger = assay: Antimicrobial activity against Aspergillus niger ATCC 13496 at 50 ug/ml; format: functional, organism-based
Escherichia coli = assay: Antimicrobial activity against Escherichia coli ATCC 25922 at 50 ug/ml; format: functional, organism-based
Artemia salina = assay: Toxicity in Artemia salina; format: organism-based; conditions: in vivo
Sarcina ventriculi = assay: Antimicrobial activity against Sarcina ventriculi ATCC 29068 at 50 ug/ml; format: functional
HeLa = assay: Cytotoxicity against human HeLa cells after 6 days by MTT method; format: functional, cell-based; conditions: 144 h
Staphylococcus aureus = assay: Antimicrobial activity against Staphylococcus aureus ATCC 27154 at 50 ug/ml; format: functional, organism-based
Candida albicans = assay: Antimicrobial activity against Candida albicans ATCC 10231 at 50 ug/ml; format: functional, organism-based

Structure (SMILES) | IC50 (HepG2) | IC50 (MDA-MB-435) | IC50 (MCF7) | IC50 (PC-3) | Activity (Pseudomonas aeruginosa) | Activity (Aspergillus niger) | Activity (Escherichia coli) | LD50 (Artemia salina) | Activity (Sarcina ventriculi) | IC50 (HeLa) | Activity (Staphylococcus aureus) | Activity (Candida albicans)
COc1cccc2c1C(=O)c1c(O)c3c(c(O)c1C2=O)C[C@@](O)(C(=O)CO)C[C@@H]3O[C@H]1C[C@H](N)[C@@H](O)[C@H](C)O1 [EPIRUBICIN] | 0.56 µg/mL (≈ 1.03 µM) | 0.33 µg/mL (≈ 0.607 µM) | 0.56 µg/mL (≈ 1.03 µM) | 0.16 µg/mL (≈ 0.294 µM) | – | – | – | – | – | – | – | –
CC1(C)CCC(=O)[C@@]2(C)OO[C@@H]3C[C@@]12CC[C@H]3O [MERULIN A] | 6.79 µg/mL (≈ 26.7 µM) | 1.9 µg/mL (≈ 7.47 µM) | 4.17 µg/mL (≈ 16.4 µM) | 1.82 µg/mL (≈ 7.16 µM) | inactive | inactive | inactive | < 10 ppm | inactive | 7.97 µg/mL (≈ 31.3 µM) | inactive | inactive
CC(=O)O[C@H]1CC[C@]23C[C@@H]1OO[C@]2(C)C(=O)CCC3(C)C [TALAPEROXIDE A] | 12.9 µg/mL (≈ 43.6 µM) | 11.8 µg/mL (≈ 39.7 µM) | 19.8 µg/mL (≈ 66.7 µM) | 5.7 µg/mL (≈ 19.2 µM) | inactive | inactive | inactive | < 10 ppm | inactive | 13.7 µg/mL (≈ 46.2 µM) | inactive | inactive
CC(=O)O[C@H]1CC[C@]23C[C@@H]1OO[C@@]2(C)C(=O)CCC3(C)C [TALAPEROXIDE B] | 1.29 µg/mL (≈ 4.35 µM) | 2.78 µg/mL (≈ 9.38 µM) | 1.33 µg/mL (≈ 4.49 µM) | 0.89 µg/mL (≈ 3 µM) | inactive | inactive | inactive | < 10 ppm | inactive | 1.73 µg/mL (≈ 5.84 µM) | inactive | inactive
CC1(C)CCC(=O)[C@@]2(C)OO[C@H]3C[C@]12CCC3=O [TALAPEROXIDE C] | 15.1 µg/mL (≈ 59.9 µM) | 2.64 µg/mL (≈ 10.5 µM) | 6.63 µg/mL (≈ 26.3 µM) | 4.34 µg/mL (≈ 17.2 µM) | inactive | inactive | inactive | < 10 ppm | inactive | 12.7 µg/mL (≈ 50.4 µM) | inactive | inactive
CC1(C)CCC(=O)[C@]2(C)OO[C@H]3C[C@]12CCC3=O [TALAPEROXIDE D] | 0.9 µg/mL (≈ 3.57 µM) | 0.91 µg/mL (≈ 3.61 µM) | 1.92 µg/mL (≈ 7.61 µM) | 0.7 µg/mL (≈ 2.77 µM) | inactive | inactive | inactive | < 10 ppm | inactive | 1.31 µg/mL (≈ 5.19 µM) | inactive | inactive
